Laboratory results published in patent US20240218022A1, “ANTI-VISTA MACROCYCLIC PEPTIDES AND COMPOSITIONS” (BRISTOL-MYERS SQUIBB COMPANY, priority 2022, published 2024).
Like-named read-outs stand apart in the source and are kept apart here. Starred links: 1 amine or outer side, 2 acyl side, 3 side chain; linkers in the order of their positions; H or OH if unused. Positions of bridges follow the written chain, without caps; N, C: chain ends. Non-standard residues stand in square brackets, D forms with d. Residues, ends and D or L forms follow the SMILES beside them. Phe(4-CONH2) = NC(=O)c1ccc(C[C@H](N)C(=O)O)cc1; NMeW = CN[C@@H](Cc1c[nH]c2ccccc12)C(=O)O; Phe(3-Br) = N[C@@H](Cc1cccc(Br)c1)C(=O)O; Phe(3-Me) = Cc1cccc(C[C@H](N)C(=O)O)c1; 2Nal = N[C@@H](Cc1ccc2ccccc2c1)C(=O)O; βAsp = O=C(O)[C@H](CC(=O)[*:2])N[*:1]; Cha = N[C@@H](CC1CCCCC1)C(=O)O; Cit = NC(=O)NCCC[C@H](N)C(=O)O; Ahp(2) = CCCCC[C@H](N)C(=O)O; NMeNle = CCCC[C@H](NC)C(=O)O; Tle = CC(C)(C)[C@H](N)C(=O)O; NHexGly = CCCCCCNCC(=O)O; Nle = CCCC[C@H](N)C(=O)O; Orn = NCCC[C@H](N)C(=O)O; Aun = NCCCCCCCCCCC(=O)O; AEEA = NCCOCCOCC(=O)O

Molecular target: T1, mouse VISTA (mVISTA) (Mus musculus, UniProt Q9D659)
T1 construct: expressed in transfected cells; host or cells: Human embryonic kidney 293T cells
T1 sequence (Q9D659 33-308): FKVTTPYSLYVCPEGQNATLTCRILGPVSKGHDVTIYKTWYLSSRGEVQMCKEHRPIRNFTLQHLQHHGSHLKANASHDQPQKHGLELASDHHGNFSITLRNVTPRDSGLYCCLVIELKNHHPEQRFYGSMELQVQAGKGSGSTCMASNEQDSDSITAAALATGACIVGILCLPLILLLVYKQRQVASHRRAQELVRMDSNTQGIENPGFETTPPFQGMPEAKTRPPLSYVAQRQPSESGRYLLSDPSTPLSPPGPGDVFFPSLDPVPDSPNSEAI
Experiment: Cell-Based Binding High-Content Assay For mVISTA (HC CBA mVISTA)
Summary of the method: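 Competition of compound with a biotinylated peptide (final 2 nM, 30 min at RT) for binding to mVISTA on 293T cells, run under no-wash or wash (1 h compound preincubation then removal) formats. Readout by Alexa 647–streptavidin imaging on a high-content platform; four-parameter logistic fit gave IC50.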

[1] = cell-based binding high-content assay, mVISTA, the 15th table, read-out: HC CBA mVISTA IC50
[2] = 293T cells expressing mouse VISTA, competition with biotinylated peptide (2 nM), read-out: HC CBA mVISTA IC50
[3] = the 19th table, scaffold drawing 22, read-out: HC CBA mVISTA IC50

CCCCCCN1CC(=O)N[C@@H](Cc2ccc(O)cc2)C(=O)N[C@@H](CCCC)C(=O)N[C@@H](CC(N)=O)C(=O)N[C@@H](CCCNC(=N)N)C(=O)N(C)[C@@H](Cc2c[nH]c3ccccc23)C(=O)N[C@@H](CCCCC)C(=O)N2CCC[C@H]2C(=O)N[C@@H](C(C)C)C(=O)N[C@@H](CC(=O)O)C(=O)N[C@H](C(=O)NCC(=O)O)CSCC(=O)N[C@@H](Cc2ccc3ccccc3c2)C(=O)N[C@@H](Cc2c[nH]c3ccccc23)C(=O)N[C@@H](CC(=O)O)C1=O [compound 1261] ({CH2CO}-[2Nal]WD[NHexGly]Y[Nle]NR[NMeW][Ahp(2)]PVDCG-OH; thioether N-14)
IC50 [1]: 11.7 nM

CCCCCCN1CC(=O)N[C@@H](Cc2ccc(O)cc2)C(=O)N[C@@H](CCCC)C(=O)N[C@@H](CC(=O)O)C(=O)N[C@@H](CCCNC(=N)N)C(=O)N[C@@H](CC(C)C)C(=O)N[C@@H](CCCCC)C(=O)N2CCC[C@H]2C(=O)N[C@@H](C(C)C)C(=O)N[C@@H](CC(N)=O)C(=O)N[C@H](C(=O)NCC(=O)O)CSCC(=O)N[C@@H](Cc2ccccc2)C(=O)N[C@@H](Cc2ccc(O)cc2)C(=O)N[C@@H](CC(=O)O)C1=O [Example 1029] ({CH2CO}-FYD[NHexGly]Y[Nle]DRL[Ahp(2)]PVNCG-OH; thioether N-14)
IC50 [2]: 1.1 nM

CCCCCCN1CC(=O)N[C@@H](Cc2ccc(O)cc2)C(=O)N[C@@H](CC(C)C)C(=O)N[C@@H](CC(N)=O)C(=O)N[C@@H](CCCNC(=N)N)C(=O)N[C@@H](CC(C)C)C(=O)N[C@@H](CCCCC)C(=O)N2CCC[C@H]2C(=O)N[C@@H](C(C)C)C(=O)N[C@@H](C(C)C)C(=O)N[C@H](C(=O)N[C@@H](CO)C(=O)O)CSCC(=O)N[C@@H](Cc2cccc(C)c2)C(=O)N[C@@H](Cc2c[nH]c3ccccc23)C(=O)N[C@@H](CC(=O)O)C1=O [compound 1426] ({CH2CO}-[Phe(3-Me)]WD[NHexGly]YLNRL[Ahp(2)]PVVCS-OH; thioether N-14)
IC50 [3]: 4.1 nM

CCCCCCN1CC(=O)N[C@@H](Cc2ccc(O)cc2)C(=O)N[C@@H](CCCCC)C(=O)N[C@@H](CC(N)=O)C(=O)N[C@@H](CCCNC(=N)N)C(=O)N(C)[C@@H](CCCC)C(=O)N[C@@H](CCCCC)C(=O)N2CCC[C@H]2C(=O)N[C@@H](C(C)C)C(=O)N[C@@H](CC(=O)O)C(=O)N[C@H](C(=O)N[C@@H](CO)C(=O)O)CSCC(=O)N[C@@H](Cc2cccc(C)c2)C(=O)N[C@@H](Cc2c[nH]c3ccccc23)C(=O)N[C@@H](CC(=O)O)C1=O [compound 1444] ({CH2CO}-[Phe(3-Me)]WD[NHexGly]Y[Ahp(2)]NR[NMeNle][Ahp(2)]PVDCS-OH; thioether N-14)
IC50 [3]: 13.3 nM

CCCCCCN1CC(=O)N[C@@H](Cc2ccc(O)cc2)C(=O)N[C@@H](CCCC)C(=O)N[C@@H](CC(=O)O)C(=O)N[C@@H](CCCN)C(=O)N(C)[C@@H](CCCC)C(=O)N[C@@H](CCCCC)C(=O)N2CCC[C@H]2C(=O)N[C@@H](C(C)C)C(=O)N[C@@H](CC(=O)O)C(=O)N[C@H](C(=O)N[C@@H](CO)C(N)=O)CSCC(=O)N[C@@H](Cc2ccc3ccccc3c2)C(=O)N[C@@H](Cc2c[nH]c3ccccc23)C(=O)N[C@@H](CC(=O)O)C1=O [compound 1256] ({CH2CO}-[2Nal]WD[NHexGly]Y[Nle]D[Orn][NMeNle][Ahp(2)]PVDCS-NH2; thioether N-14)
IC50 [1]: 12.9 nM

CCCCCCN1CC(=O)N[C@@H](Cc2ccc(O)cc2)C(=O)N[C@@H](CCCC)C(=O)N[C@@H](CC(=O)O)C(=O)N[C@@H](CCCNC(=N)N)C(=O)N(C)[C@@H](CCCC)C(=O)N[C@@H](CCCCC)C(=O)N2CCC[C@H]2C(=O)N[C@@H](C(C)C)C(=O)N[C@@H](CC(=O)O)C(=O)N[C@H](C(=O)N[C@@H](CO)C(N)=O)CSCC(=O)N[C@@H](Cc2ccccc2)C(=O)N[C@@H](Cc2c[nH]c3ccccc23)C(=O)N[C@@H](CC(=O)O)C1=O [Example 1407] ({CH2CO}-FWD[NHexGly]Y[Nle]DR[NMeNle][Ahp(2)]PVDCS-NH2; thioether N-14)
IC50 (read-out: HC CBA mVISTA IC50): 34.5 nM

CCCCCCN1CC(=O)N[C@@H](Cc2ccc(O)cc2)C(=O)N[C@@H](CCCC)C(=O)N[C@@H](CC(=O)O)C(=O)N[C@@H](CCCNC(N)=O)C(=O)N(C)[C@@H](CCCC)C(=O)N[C@@H](CCCCC)C(=O)N2CCC[C@H]2C(=O)N[C@@H](C(C)C)C(=O)N[C@@H](CC(=O)O)C(=O)N[C@H](C(=O)N[C@@H](CC(=O)O)C(N)=O)CSCC(=O)N[C@@H](Cc2cccc(C)c2)C(=O)N[C@@H](Cc2ccc(O)cc2)C(=O)N[C@@H](CC(=O)O)C1=O [compound 1447] ({CH2CO}-[Phe(3-Me)]YD[NHexGly]Y[Nle]D[Cit][NMeNle][Ahp(2)]PVDCD-NH2; thioether N-14)
IC50 [3]: 15.3 nM

CCCCCCN1CC(=O)N[C@@H](Cc2ccc(O)cc2)C(=O)N[C@@H](CC(C)C)C(=O)N[C@@H](CC(N)=O)C(=O)N[C@@H](CCCNC(=N)N)C(=O)N[C@@H](CC(C)C)C(=O)N[C@@H](CCCCC)C(=O)N2CCC[C@H]2C(=O)N[C@@H](C(C)C)C(=O)N[C@@H](C(C)C)C(=O)N[C@H](C(=O)N[C@@H](CO)C(=O)O)CSCC(=O)N[C@@H](Cc2ccccc2)C(=O)N[C@@H](Cc2ccc(O)cc2)C(=O)N[C@@H](CC(=O)O)C1=O [Example 1072] ({CH2CO}-FYD[NHexGly]YLNRL[Ahp(2)]PVVCS-OH; thioether N-14)
IC50 [2]: 5.8 nM

CCCCCCN1CC(=O)N[C@@H](Cc2ccc(O)cc2)C(=O)N[C@@H](CC2CCCCC2)C(=O)N[C@@H](CC(N)=O)C(=O)N[C@@H](CCCN)C(=O)N(C)[C@@H](CCCC)C(=O)N[C@@H](CCCCC)C(=O)N2CCC[C@H]2C(=O)N[C@@H](C(C)(C)C)C(=O)N[C@@H](CO)C(=O)N[C@H](C(=O)N[C@@H](CC(=O)NCCOCCOCC(=O)N[C@@H](CC(=O)O)C(=O)NCCOCCOCC(=O)NCCCCCCCCCCC(=O)O)C(=O)O)CSCC(=O)N[C@@H](Cc2ccccc2)C(=O)N[C@@H](Cc2ccc(O)cc2)C(=O)N[C@@H](CC(=O)O)C1=O [compound 2055] ({CH2CO}-FYD[NHexGly]Y[Cha]N[Orn][NMeNle][Ahp(2)]P[Tle]SC[βAsp][AEEA]D[AEEA][Aun]-OH; thioether N-14)
IC50 (cell-based binding high-content assay, mVISTA, read-out: HC CBA miPr ISTA IC50): 32.7 nM

CCCCCCN1CC(=O)N[C@@H](Cc2ccc(O)cc2)C(=O)N[C@@H](CC(C)C)C(=O)N[C@@H](CC(N)=O)C(=O)N[C@@H](CCCNC(=N)N)C(=O)N(C)[C@@H](CCCC)C(=O)N[C@@H](CCCCC)C(=O)N2CCC[C@H]2C(=O)N[C@@H](C(C)(C)C)C(=O)N[C@@H](CC(=O)O)C(=O)N[C@H](C(=O)N[C@@H](CC(=O)NCCOCCOCC(=O)N[C@@H](CC(=O)O)C(=O)NCCOCCOCC(=O)NCCCCCCCCCCC(=O)O)C(=O)O)CSCC(=O)N[C@@H](Cc2ccc(C(N)=O)cc2)C(=O)N[C@@H](Cc2c[nH]c3ccccc23)C(=O)N[C@@H](CC(=O)O)C1=O [compound 2091] ({CH2CO}-[Phe(4-CONH2)]WD[NHexGly]YLNR[NMeNle][Ahp(2)]P[Tle]DC[βAsp][AEEA]D[AEEA][Aun]-OH; thioether N-14)
IC50 (cell-based binding high-content assay, mVISTA, read-out: HC CBA miPrISTA IC50): 14.6 nM

CCCCCCN1CC(=O)N[C@@H](Cc2ccc(O)cc2)C(=O)N[C@@H](CC(C)C)C(=O)N[C@@H](CC(N)=O)C(=O)N[C@@H](CCCNC(=N)N)C(=O)N(C)[C@@H](CCCC)C(=O)N[C@@H](CCCCC)C(=O)N2CCC[C@H]2C(=O)N[C@@H](C(C)C)C(=O)N[C@@H](CO)C(=O)N[C@H](C(=O)NCC(N)=O)CSCC(=O)N[C@@H](Cc2cccc(Br)c2)C(=O)N[C@@H](Cc2ccc(O)cc2)C(=O)N[C@@H](CC(=O)O)C1=O [compound 1224] ({CH2CO}-[Phe(3-Br)]YD[NHexGly]YLNR[NMeNle][Ahp(2)]PVSCG-NH2; thioether N-14)
IC50 (read-out: HC CBA mVISTA IC50): 22.6 nM
